Experimental data published in US12534469B2 (CHILDREN'S HOSPITAL MEDICAL CENTER, priority 2020, dated 2026).

What was measured:
Type in all cases: biochemical
[1] = biological target: T1, IRAK4 (Homo sapiens, UniProt Q9NWZ3); experiment: RBC HotSpot Kinase Assay, IRAK4; set-up: purchased Reaction Biology (RBC HotSpot Kinase Assay)
T1 sequence (Q9NWZ3 1-460): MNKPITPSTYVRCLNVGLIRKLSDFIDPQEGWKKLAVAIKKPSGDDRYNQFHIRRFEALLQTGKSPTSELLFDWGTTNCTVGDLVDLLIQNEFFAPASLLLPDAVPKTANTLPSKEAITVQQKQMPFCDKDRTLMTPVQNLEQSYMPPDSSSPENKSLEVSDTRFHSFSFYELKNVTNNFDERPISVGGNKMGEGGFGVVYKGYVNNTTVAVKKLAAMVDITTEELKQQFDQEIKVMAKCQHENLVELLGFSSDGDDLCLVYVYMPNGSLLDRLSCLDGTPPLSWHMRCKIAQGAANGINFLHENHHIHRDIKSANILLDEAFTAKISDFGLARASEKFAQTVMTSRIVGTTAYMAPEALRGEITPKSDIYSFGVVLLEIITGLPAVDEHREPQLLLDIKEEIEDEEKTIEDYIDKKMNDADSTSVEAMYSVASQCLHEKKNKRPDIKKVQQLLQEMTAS
Excerpt: (§1) This assay uses the isolated kinase enzyme. This assay is very useful for determining competition of the inhibitor for ATP and/or substrates and for measuring the kinetics of enzyme inhibition. […] Unlike kinase binding assays that measure competition for ATP, the HotSpot Kinase Assay is a functional assay that measures catalytic activity; as such it measures relative functional potency regardless of the mechanism of enzyme inhibition. This assay uses the form of the various enzymes that are easiest to express, which may not necessarily be the form of the enzyme that exist in the cell. (Sometimes the carboxy terminus has been truncated to aid in expression, or, if it is a receptor kinase, the enzyme itself is isolated from the other parts of the receptor that are involved in regulating kinase activity.)
(§2) The reagent used was as follows: Base Reaction buffer; 20 mM Hepes (pH 7.5), 10 mM MgCl2, 1 mM EGTA, 0.01% Brij35, 0.02 mg/ml BSA, 0.1 mM Na3VO4, 2 mM DTT, 1% DMSO. Required cofactors were added individually to each kinase reaction.
(§3) The reaction procedure was as follows: • 1) Substrates were prepared in freshly prepared Reaction Buffer. • 2) Any required cofactors were delivered to the substrate solution above. • 3) Kinase was delivered into the substrate solution and gently mixed. • 4) Compounds were delivered in 100% DMSO into the kinase reaction mixture by Acoustic technology (Echo550; nanoliter range), followed by incubation for 20 min at room temp. • 5) ^33P-ATP was delivered into the reaction mixture to initiate the reaction. • 6) The mixture was incubated for 2 hours at room temperature. • 7) Kinase activity was detected by P81 filter-binding method.

[2] = biological target: T2, FLT3 (Homo sapiens, UniProt P36888); experiment: RBC HotSpot Kinase Assay, FLT3
T2 construct: purchased Reaction Biology (RBC HotSpot Kinase Assay)
T2 sequence (P36888 564-958 limits assumed): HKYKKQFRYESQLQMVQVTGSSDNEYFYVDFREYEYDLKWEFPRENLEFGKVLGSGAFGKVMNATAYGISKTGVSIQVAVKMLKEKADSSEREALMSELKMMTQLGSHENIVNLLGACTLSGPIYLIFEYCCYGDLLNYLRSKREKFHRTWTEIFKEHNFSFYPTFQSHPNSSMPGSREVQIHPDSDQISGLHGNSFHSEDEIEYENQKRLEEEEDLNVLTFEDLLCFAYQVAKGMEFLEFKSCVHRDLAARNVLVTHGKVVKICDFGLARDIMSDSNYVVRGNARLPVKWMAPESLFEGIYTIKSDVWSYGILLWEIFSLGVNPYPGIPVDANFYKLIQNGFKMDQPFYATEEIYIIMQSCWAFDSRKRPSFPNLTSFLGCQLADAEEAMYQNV
Excerpt: as §1, §2, §3

[3] = biological target: T3, IRAK1 (Homo sapiens, UniProt P51617); experiment: RBC HotSpot Kinase Assay, IRAK1
T3 construct: purchased Reaction Biology (RBC HotSpot Kinase Assay)
T3 sequence (P51617 whole entry): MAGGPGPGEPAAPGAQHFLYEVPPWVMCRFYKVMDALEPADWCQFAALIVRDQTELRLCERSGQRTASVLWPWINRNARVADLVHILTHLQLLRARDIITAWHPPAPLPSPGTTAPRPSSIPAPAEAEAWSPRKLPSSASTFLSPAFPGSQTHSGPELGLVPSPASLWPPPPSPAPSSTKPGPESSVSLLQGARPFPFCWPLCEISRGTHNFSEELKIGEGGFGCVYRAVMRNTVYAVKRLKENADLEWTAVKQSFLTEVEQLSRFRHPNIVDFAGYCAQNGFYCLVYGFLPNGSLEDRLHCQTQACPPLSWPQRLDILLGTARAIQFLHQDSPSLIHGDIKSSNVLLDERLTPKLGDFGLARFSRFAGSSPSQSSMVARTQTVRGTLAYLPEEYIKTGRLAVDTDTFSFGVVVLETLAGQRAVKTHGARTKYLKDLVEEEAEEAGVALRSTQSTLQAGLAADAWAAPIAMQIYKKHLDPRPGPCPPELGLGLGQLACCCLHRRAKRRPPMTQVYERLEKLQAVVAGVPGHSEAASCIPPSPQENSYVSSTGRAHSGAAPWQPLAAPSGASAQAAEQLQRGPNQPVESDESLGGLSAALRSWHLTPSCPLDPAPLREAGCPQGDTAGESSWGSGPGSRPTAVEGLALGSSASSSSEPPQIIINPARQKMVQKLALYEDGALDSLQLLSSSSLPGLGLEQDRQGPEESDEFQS
Excerpt: as §1, §2, §3

Compound	IC50 [1] [nM]	IC50 [2] [nM]	IC50 [3] [nM]
CC(C)n1cc(-c2ccc3ncc(-c4cccc(NC5CCC6(CNC6)C5)n4)n3n2)cn1 (stereo not drawn) [Compound 46, N-(6-(6-(1-isopropyl-1H-pyrazol-4-yl)imidazo[1,2-b]pyridazin-3-yl)pyridin-2-yl)-2-azaspiro[3.4]octan-6-amine]	985	6	2180
c1cc(NC2CC3(CNC3)C2)nc(-c2cnc3ccc(-c4cnn(C5CCOCC5)c4)nn23)c1 [Compound 34, N-(6-(6-(1-(tetrahydro-2H-pyran-4-yl)-1H-pyrazol-4-yl)imidazo[1,2-b]pyridazin-3-yl)pyridin-2-yl)-2-azaspiro[3.3]heptan-6-amine]	5070	16	> 10000
FC1(F)CNCC1Nc1cccc(-c2cnc3ccc(-c4cnn5c4CCCC5)nn23)n1 (stereo not drawn) [Compound 59, N-(4,4-difluoropyrrolidin-3-yl)-6-(6-(4,5,6,7-tetrahydropyrazolo[1,5-a]pyridin-3-yl)imidazo[1,2-b]pyridazin-3-yl)pyridin-2-amine]	12	2	621
FC(F)(F)[C@H]1CNC[C@@H]1Nc1cccc(-c2cnc3ccc(C4CC4)nn23)n1 [Compound 71, 6-(6-cyclopropylimidazo[1,2-b]pyridazin-3-yl)-N-((3R,4S)-4-(trifluoromethyl)pyrrolidin-3-yl)pyridin-2-amine]	36	0.8	2650
CC(C)(O)Cn1cc(-c2ccc3ncc(-c4cccc(N[C@H]5CNC[C@@H]5C(F)(F)F)n4)n3n2)cn1 [Compound 14, 2-methyl-1-(4-(3-(6-(((3R,4S)-4-(trifluoromethyl)pyrrolidin-3-yl)amino)pyridin-2-yl)imidazo[1,2-b]pyridazin-6-yl)-1 H-pyrazol-1-yl)propan-2-ol]	100	3	1850
FC(F)n1cc(-c2ccc3ncc(-c4cccc(NC5CNCC5(F)F)n4)n3n2)cn1 (stereo not drawn) [Compound 23, 6-(6-(1-(difluoromethyl)-1H-pyrazol-4-yl)imidazo[1,2-b]pyridazin-3-yl)-N-(4,4-difluoropyrrolidin-3-yl)pyridin-2-amine]	75	16	1150
CNc1ccc2ncc(-c3cccc(N[C@H]4CNC[C@@H]4F)n3)n2n1 [Compound 89, 3-(6-(((3S,4S)-4-fluoropyrrolidin-3-yl)amino)pyridin-2-yl)-N-methylimidazo[1,2-b]pyridazin-6-amine]	58	5	8050
COc1cc2ncc(-c3cccc(N[C@@H]4CCCNC4)n3)n2nc1N1CCCC1=O [Compound 137, (R)-1-(7-methoxy-3-(6-(piperidin-3-ylamino)pyridin-2-yl)imidazo[1,2-b]pyridazin-6-yl)pyrrolidin-2-one]	1980	13	> 10000
c1cc(NC2CC3(CCNC3)C2)nc(-c2cnc3ccc(-c4cnn(C5CNC5)c4)nn23)c1 (stereo not drawn) [Compound 44, N-(6-(6-(1-(azetidin-3-yl)-1H-pyrazol-4-yl)imidazo[1,2-b]pyridazin-3-yl)pyridin-2-yl)-6-azaspiro[3.4]octan-2-amine]	4340	4	> 10000

Continued by falling IC50 [1], values first:

IC50 [1] [nM]	IC50 [2] [nM]	IC50 [3] [nM]	Compound
1300	9	> 10000	c1ccc(-n2cc(-c3ccc4ncc(-c5cccc(NC6CC7(CCNC7)C6)n5)n4n3)cn2)cc1 (stereo not drawn) [Compound 40, N-(6-(6-(1-phenyl-1H-pyrazol-4-yl)imidazo[1,2-b]pyridazin-3-yl)pyridin-2-yl)-6-azaspiro[3.4]octan-2-amine]
323	9	3190	CC(C)Oc1cnn2c(-c3cccc(N[C@H]4CNC[C@@H]4F)n3)cnc2c1 [Compound 115, N-((3S,4S)-4-fluoropyrrolidin-3-yl)-6-(7-isopropoxyimidazo[1,2-b]pyridazin-3-yl)pyridin-2-amine]
128	3	2060	FC(F)n1cc(-c2ccc3ncc(-c4cccc(N[C@H]5CNC[C@@H]5C(F)(F)F)n4)n3n2)cn1 [Compound 12, 6-(6-(1-(difluoromethyl)-1 H-pyrazol-4-yl)imidazo[1,2-b]pyridazin-3-yl)-N-((3R,4S)-4-(trifluoromethyl)pyrrolidin-3-yl)pyridin-2-amine]
114	3	1360	CC(C)(O)Cn1cc(-c2ccc3ncc(-c4cccc(N[C@H]5CNC[C@@H]5F)n4)n3n2)cn1 [Compound 4, 1-(4-(3-(6-(((3S,4S)-4-fluoropyrrolidin-3-yl)amino)pyridin-2-yl)imidazo[1,2-b]pyridazin-6-yl)-1 H-pyrazol-1-yl)-2-methylpropan-2-ol]
113	16	6840	Fc1cc(F)c2c(-c3ccc4ncc(-c5cccc(NC6CNCC6(F)F)n5)n4n3)cnn2c1 (stereo not drawn) [Compound 55, 6-(6-(4,6-difluoropyrazolo[1,5-a]pyridin-3-yl)imidazo[1,2-b]pyridazin-3-yl)-N-(4,4-difluoropyrrolidin-3-yl)pyridin-2-amine]
104	2	565	Cn1cc(-c2ccc3ncc(-c4cccc(NC5CCNC5)n4)n3n2)cn1 (stereo not drawn) [Compound 30, 6-(6-(1-methyl-1H-pyrazol-4-yl)imidazo[1,2-b]pyridazin-3-yl)-N-(pyrrolidin-3-yl)pyridin-2-amine]
71	1	449	F[C@H]1CNC[C@@H]1Nc1cccc(-c2cnc3ccc(-c4cnn(C5CC5)c4)nn23)n1 [Compound 3, 6-(6-(1-cyclopropyl-1 H-pyrazol-4-yl)imidazo[1,2-b]pyridazin-3-yl)-N-((3S,4S)-4-fluoropyrrolidin-3-yl)pyridin-2-amine]
61	4	6290	CN(C)c1ccc2ncc(-c3cccc(N[C@H]4CNC[C@@H]4F)n3)n2n1 [Compound 90, 3-(6-(((3S,4S)-4-fluoropyrrolidin-3-yl)amino)pyridin-2-yl)-N,N-dimethylimidazo[1,2-b]pyridazin-6-amine]
51	5	266	Cn1cc(-c2ccc3ncc(-c4cccc(N[C@H]5CCNC[C@@H]5F)n4)n3n2)cn1 [Compound 5, N-((3S,4S)-3-fluoropiperidin-4-yl)-6-(6-(1-methyl-1H-pyrazol-4-yl)imidazo[1,2-b]pyridazin-3-yl)pyridin-2-amine]
44	6	678	FC1(F)CNCC1Nc1cccc(-c2cnc3ccc(-c4cnn(C5CC5)c4)nn23)n1 (stereo not drawn) [Compound 22, 6-(6-(1-cyclopropyl-1H-pyrazol-4-yl)imidazo[1,2-b]pyridazin-3-yl)-N-(4,4-difluoropyrrolidin-3-yl)pyridin-2-amine]
39	4	2680	F[C@H]1CNC[C@@H]1Nc1cccc(-c2cnc3ccc(N4CCC4)nn23)n1 [Compound 93, 6-(6-(azetidin-1-yl)imidazo[1,2-b]pyridazin-3-yl)-N-((3S,4S)-4-fluoropyrrolidin-3-yl)pyridin-2-amine]
13	< 0.5	226	Cn1cc(-c2ccc3ncc(-c4cccc(N[C@@H]5CCCNC5)n4)n3n2)cn1 [Compound 15, (R)-6-(6-(1-methyl-1H-pyrazol-4-yl)imidazo[1,2-b]pyridazin-3-yl)-N-(piperidin-3-yl)pyridin-2-amine]
9	< 0.5	1820	c1cc(N[C@@H]2CCCNC2)nc(-c2cnc3ccc(-c4cnn(C5CC5)c4)nn23)c1 [Compound 17, (R)-6-(6-(1-cyclopropyl-1 H-pyrazol-4-yl)imidazo[1,2-b]pyridazin-3-yl)-N-(piperidin-3-yl)pyridin-2-amine]
